target: human plasma kallikrein (Homo sapiens (Human), UniProt P03952); details: human plasma kallikrein 25 pM, substrate 0.5 uM, 1 hour pre-incubation at room temperature, read at t=60 min
Sequence (P03952 whole entry, looked up): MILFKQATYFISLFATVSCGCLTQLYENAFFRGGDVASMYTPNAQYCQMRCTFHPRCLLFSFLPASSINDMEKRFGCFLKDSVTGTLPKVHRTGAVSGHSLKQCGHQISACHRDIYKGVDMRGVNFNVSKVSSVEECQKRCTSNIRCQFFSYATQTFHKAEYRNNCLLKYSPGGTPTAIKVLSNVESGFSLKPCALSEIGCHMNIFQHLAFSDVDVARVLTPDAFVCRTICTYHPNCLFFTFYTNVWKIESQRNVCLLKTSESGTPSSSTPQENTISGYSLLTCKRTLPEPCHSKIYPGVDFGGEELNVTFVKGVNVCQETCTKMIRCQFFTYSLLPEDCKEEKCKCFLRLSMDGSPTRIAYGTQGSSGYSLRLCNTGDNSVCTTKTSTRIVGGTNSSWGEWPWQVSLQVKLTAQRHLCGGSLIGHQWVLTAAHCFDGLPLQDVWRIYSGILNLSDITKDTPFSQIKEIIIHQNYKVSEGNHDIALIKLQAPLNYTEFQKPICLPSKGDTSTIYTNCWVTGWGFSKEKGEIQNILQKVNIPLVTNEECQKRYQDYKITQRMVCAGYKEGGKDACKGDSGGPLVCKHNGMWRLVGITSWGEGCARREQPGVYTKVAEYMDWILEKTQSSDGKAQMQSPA
Sequence (P03952 whole entry partner, looked up): as the sequence (P03952 whole entry, looked up) above
Procedure: All other chemicals were of analytical grade.
A stock solution of 0.17 mg/ml deinonized water was stored at −80° C. Enzymatic reactions were conducted in ‘assay buffer’, comprising 50 mM Hepes/NaOH at pH 7.8, 150 mM NaCl, 1 mM EDTA and 0.05% (w/v) CHAPS.
Both, enzyme and substrate were diluted in assay buffer.
All protein and peptide containing solutions were handled in siliconized tubes (Life Systems Design, Merenschwand, Switzerland). […] Plate measurements were conducted by the means of a Safire2 reader (TECAN, Maennedorf, Switzerland). The Safire2 is a monochomator-based instrument and wavelengths of 485 nm and 535 nm were taken for fluorescence excitation and emission acquisition, respectively. The bandwidths were set to 10 nm in both the excitation and the emission path. The fluorescence in each well was excited by three flashes per measurement.
The test compound was dissolved in 90% (v/v) DMSO/water. For the assays, 250 nL of the 90% (v/v) DMSO/water solution or compound solution were added per well, followed by the addition of 12.5 μl protease solution (protease in assay buffer). […] After 1 hour of pre-incubation at room temperature, the reactions were started by the addition of 12.5 μl substrate solution (in assay buffer, final assay concentration was 0.5 uM). After the addition of the substrate solution, the final DMSO concentration in the assay was 0.9% (v/v). […] The IC50 value was calculated from the plot of percentage of inhibition vs. inhibitor concentration by a logistics fit according to the following equation: y=A2+(A1−A2)/(1+(x/IC50)^p) where y is the %-inhibition at the inhibitor concentration, x. A1 is the lowest inhibition value, i.e. 0%, and A2 the maximum inhibition value, i.e. 100%. The exponent, p, is the Hill coefficient. The curve fitting was conducted with the non-linear regression routine of the analysis software Origin 7.55R6 (OriginLab Corporation).

SMILES	IC50 [nM]
Cc1cc(N)nc(C)c1CNC(=O)c1cnn(Cc2ccc(Cn3cccn3)cc2)c1 [Example 145, 1-(4-((1H-pyrazol-1-yl)methyl)benzyl)-N-((6-amino-2,4-dimethylpyridin-3-yl)methyl)-1H-pyrazole-4-carboxamide]	0.2
Cc1cnn(Cc2ccc(Cn3cc(C(=O)NCc4c(C)cc(N)nc4C)cn3)cc2)c1 [Example 146, N-((6-amino-2,4-dimethylpyridin-3-yl)methyl)-1-(4-((4-methyl-1H-pyrazol-1-yl)methyl)benzyl)-1H-pyrazole-4-carboxamide]	0.04
Cc1cc(C)n(Cc2ccc(Cn3cc(C(=O)NCc4c(C)cc(N)nc4C)nn3)cc2)n1 [Example 148, N-((6-amino-2,4-dimethylpyridin-3-yl)methyl)-1-(4-((3,5-dimethyl-1H-pyrazol-1-yl)methyl)benzyl)-1H-1,2,3-triazole-4-carboxamide]	0.03
Cc1nc(N)cc(OCC(=O)C(C)(C)C)c1CNC(=O)c1cnn(Cc2ccc3ccccc3c2)c1 [Example 149, N-((6-amino-4-(3,3-dimethyl-2-oxobutoxy)-2-methylpyridin-3yl)methyl)-1-(naphthalen-2-ylmethyl)-1H-pyrazole-4-carboxamide]	7.8
COCCN1CCCc2ccc(Cn3cc(C(=O)NCc4c(C)cc(N)nc4C)cn3)cc21 [Example 150, N-((6-Amino-2,4-dimethylpyridin-3-yl)methyl)-1-((1-(2-methoxyethyl)-1,2,3,4-tetrahydroquinolin-7-yl)methyl)-1H-pyrazole-4-carboxamide]	10
Cc1cc(N)nc(C)c1CNC(=O)c1cnn(Cc2ccc3c(c2)N(C)C(=O)CO3)c1 [Example 151, N-((6-Amino-2,4-dimethylpyridin-3-yl)methyl)-1-((4-methyl-3-oxo-3,4-dihydro-2H-benzo[b][1,4]oxazin-6-yl)methyl)-1H-pyrazole-4-carboxamide]	13
Cc1cc(N)nc(C)c1CNC(=O)c1cnn(Cc2ccc3c(c2)N(C)CCC3)c1 [Example 152, N-((6-Amino-2,4-dimethylpyridin-3-yl)methyl)-1-((1-methyl-1,2,3,4-tetrahydroquinolin-7-yl)methyl)-1H-pyrazole-4-carboxamide]	4
Cc1ccc2cc(Cn3cc(C(=O)NCc4c(C)cc(N)nc4C)cn3)ccc2n1 [Example 154, N-((6-amino-2,4-dimethylpyridin-3-yl)methyl)-1-((2-methylquinolin-6-yl)methyl)-1H-pyrazole-4-carboxamide]	2
Cc1cc(N)nc(C)c1CNC(=O)c1cnn(Cc2cnc3ccccc3c2)c1 [Example 155, N-((6-amino-2,4-dimethylpyridin-3-yl)methyl)-1-(quinolin-3-ylmethyl)-1H-pyrazole-4-carboxamide]	3
Cc1ccc2cc(Cn3cc(C(=O)NCc4ccc(N)nc4C)cn3)ccc2n1 [Example 159, N-((6-amino-2-methylpyridin-3-yl)methyl)-1-((2-methylquinolin-6-yl)methyl)-1H-pyrazole-4-carboxamide]	7
Cc1nc(N)ccc1CNC(=O)c1cnn(Cc2cc(C(F)(F)F)c3cc(F)ccc3n2)c1 [Example 160, N-((6-amino-2-methylpyridin-3-yl)methyl)-1-((6-fluoro-4-(trifluoromethyl)quinolin-2-yl)methyl)-1H-pyrazole-4-carboxamide]	20
Cc1cc(C)c2cc(Cn3cc(C(=O)NCc4ccc(N)nc4C)cn3)c(C)nc2c1 [Example 161, N-((6-amino-2-methylpyridin-3-yl)methyl)-1-((2,5,7-trimethylquinolin-3-yl)methyl)-1H-pyrazole-4-carboxamide]	4
Cc1cc(N)nc(C)c1CNC(=O)c1cnn(Cc2cc(C(F)(F)F)c3cc(F)ccc3n2)c1 [Example 162, N-((6-amino-2,4-dimethylpyridin-3-yl)methyl)-1-((6-fluoro-4-(trifluoromethyl)quinolin-2-yl)methyl)-1H-pyrazole-4-carboxamide]	5
